Experimental data: patent US11780841B2, “3,6-methano-1H-pyrrolo[3,2-b]pyridine and 3,6-methano-1H-pyrrolo[3,2-c]pyridine compounds and medicaments using same” (priority 2018, dated 2023)

What follows are compounds tested on recombinant rabies virus 1088 strain expressing Gaussia Luciferase (GLuc) (1088/GLuc). Conditions: read-out: Anti-rabies activity.
Assay type: cell-based

SMILES | IC50
CC(C)C[C@@H]1[C@H]2CN[C@@]3(C(=O)NCc4ccccc4)[C@@H](C2)CN(Cc2ccc(F)cc2)[C@@H]13 [IB-773] | < 5 µM
CC(C)CNC(=O)[C@]12NC[C@H]3C[C@H]1CN(Cc1ccc(F)cc1)[C@H]2[C@@H]3CCc1ccccc1 [IB-774] | < 5 µM
O=C(NCc1ccccc1)[C@]12NC[C@H]3C[C@H]1CN(Cc1ccccc1)[C@H]2[C@@H]3Cc1cccc2ccccc12 [IB-777] | < 5 µM
CC(C)CCNC(=O)[C@]12NC[C@H]3C[C@H]1CN(CC(C)C)[C@H]2[C@@H]3Cc1ccccc1 [IB-780] | < 5 µM
CC(C)CN1C[C@@H]2C[C@@H]3CN[C@]2(C(=O)NCc2ccccc2)[C@@H]1[C@@H]3Cc1ccc(O)cc1 [IB-783] | 10 to 30 µM
CC(C)CC[C@@H]1[C@H]2CN[C@@]3(C(=O)NCc4ccccc4)[C@@H](C2)CN(Cc2ccc(O)cc2)[C@@H]13 [IB-786] | 10 to 30 µM
CC(C)C[C@@H]1[C@H]2CN[C@@]3(C(=O)NCc4ccccc4)[C@@H](C2)CN(Cc2ccc(O)cc2)[C@@H]13 [IB-787] | 10 to 30 µM
O=C(NCc1cccc2ccccc12)[C@]12NC[C@H]3C[C@H]1CN(Cc1cccc4ccccc14)[C@H]2[C@@H]3CCc1ccccc1 [IB-804] | < 5 µM
NC(=O)CCNC(=O)[C@]12NC[C@H]3C[C@H]1CN(Cc1ccccc1)[C@H]2[C@@H]3Cc1cccc2ccccc12 [IB-813] | < 5 µM
O=C(NCc1ccc(F)cc1)[C@]12NC[C@H]3C[C@H]1CN(CCO)[C@H]2[C@@H]3Cc1cccc2ccccc12 [IB-831] | < 5 µM
CC(C)C[C@@H]1[C@H]2CN[C@@]3(C(=O)NCc4ccccc4)[C@@H](C2)CN(Cc2ccc(Cl)cc2)[C@@H]13 [IB-864] | 5 to 10 µM
CC(C)C[C@@H]1[C@H]2CN[C@@]3(C(=O)NCc4ccccc4)[C@@H](C2)CN(Cc2cccc(Cl)c2)[C@@H]13 [IB-865] | 5 to 10 µM
COc1ccc(CN2C[C@@H]3C[C@@H]4CN[C@]3(C(=O)NCc3ccccc3)[C@@H]2[C@@H]4CC(C)C)cc1 [IB-866] | 5 to 10 µM
Cc1ccc(CN2C[C@@H]3C[C@@H]4CN[C@]3(C(=O)NCc3ccccc3)[C@@H]2[C@@H]4CC(C)C)cc1 [IB-867] | 5 to 10 µM
CC(C)C[C@@H]1[C@H]2CN[C@@]3(C(=O)NCc4ccc(Cl)cc4)[C@@H](C2)CN(CC(C)C)[C@@H]13 [IB-871] | 10 to 30 µM
CC(C)C[C@@H]1[C@H]2CN[C@@]3(C(=O)NCc4ccccc4)[C@@H](C2)CN(Cc2ccc(N(C)C)cc2)[C@@H]13 [IB-873] | 5 to 10 µM
CC(C)C[C@@H]1[C@H]2CN[C@@]3(C(=O)NCc4ccccc4)[C@@H](C2)CN(Cc2ccc(C(C)(C)C)cc2)[C@@H]13 [IB-874] | 5 to 10 µM
CC(C)CC[C@@H]1[C@H]2CN[C@@]3(C(=O)NCc4ccccc4)[C@@H](C2)CN(CC(C)C)[C@@H]13 [IB-875] | 10 to 30 µM
CC(C)CCN1C[C@@H]2C[C@@H]3CN[C@]2(C(=O)NCc2ccccc2)[C@@H]1[C@@H]3CC(C)C [IB-876] | 10 to 30 µM
CCOc1ccc(CN2C[C@@H]3C[C@@H]4CN[C@]3(C(=O)NCc3ccccc3)[C@@H]2[C@@H]4CC(C)C)cc1 [IB-878] | 10 to 30 µM
CC(C)C[C@@H]1[C@H]2CN[C@@]3(C(=O)NCc4ccc5ccccc5c4)[C@@H](C2)CN(Cc2ccccc2)[C@@H]13 [IB-879] | < 5 µM
NC(=O)CN1C[C@H]2C[C@]3(C(=O)NCc4ccc(F)cc4)NC[C@H]2[C@H]1[C@H]3Cc1cccc2ccccc12 [IF-97] | 10 to 30 µM

SMILES | IC50
CCCCCCNC(=O)[C@@]12C[C@@H]3CN(CC(N)=O)[C@@H]([C@@H]3CN1)[C@H]2CCc1ccccc1 [IF-109] | 10 to 30 µM
CCCCCCNC(=O)[C@@]12C[C@@H]3CN(CC(N)=O)[C@@H]([C@@H]3CN1)[C@H]2Cc1cccc2ccccc12 [IF-110] | < 5 µM
NC(=O)CN1C[C@H]2C[C@]3(C(=O)NCc4ccc(O)cc4)NC[C@H]2[C@H]1[C@H]3Cc1cccc2ccccc12 [IF-137] | < 5 µM
CC(C)CCN1C[C@H]2C[C@]3(C(=O)NC(C)C)NC[C@H]2[C@H]1[C@H]3CCCNC(=N)N [IF-214] | 10 to 30 µM
NC(=O)CCNC(=O)[C@@]12C[C@@H]3CN(CCc4ccccc4)[C@@H]([C@@H]3CN1)[C@H]2CC(N)=O [IF-219] | 10 to 30 µM
NC(=O)C[C@@H]1[C@@H]2[C@@H]3CN[C@@]1(C(=O)NCc1cccc4ccccc14)C[C@@H]3CN2CCc1ccccc1 [IF-223] | 10 to 30 µM
CC(C)CNC(=O)[C@@]12C[C@@H]3CN(Cc4cccc5ccccc45)[C@@H]([C@@H]3CN1)[C@H]2CC(N)=O [IF-226] | 10 to 30 µM
NC(=O)C[C@@H]1[C@@H]2[C@@H]3CN[C@@]1(C(=O)NCCO)C[C@@H]3CN2Cc1cccc2ccccc12 [IF-230] | 10 to 30 µM
CC(C)CNC(=O)[C@@]12C[C@@H]3CN(Cc4cccc5ccccc45)[C@@H]([C@@H]3CN1)[C@H]2CCCNC(=N)N [IF-235] | 10 to 30 µM
N=C(N)NCCC[C@@H]1[C@@H]2[C@@H]3CN[C@@]1(C(=O)NCc1ccccc1)C[C@@H]3CN2Cc1cccc2ccccc12 [IF-236] | 10 to 30 µM
N=C(N)NCCC[C@@H]1[C@@H]2[C@@H]3CN[C@@]1(C(=O)NCCO)C[C@@H]3CN2Cc1cccc2ccccc12 [IF-239] | 10 to 30 µM
CCCCCCNC(=O)[C@@]12C[C@@H]3CN(Cc4cccc5ccccc45)[C@@H]([C@@H]3CN1)[C@H]2CCCNC(=N)N [IF-243] | < 5 µM
CC(C)NC(=O)[C@@]12C[C@@H]3CN(Cc4cccc5ccccc45)[C@@H]([C@@H]3CN1)[C@H]2CCCNC(=N)N [IF-244] | < 5 µM
N=C(N)NCCC[C@@H]1[C@@H]2[C@@H]3CN[C@@]1(C(=O)NCc1ccc(F)cc1)C[C@@H]3CN2Cc1cccc2ccccc12 [IF-245] | < 5 µM
NC(=O)C[C@@H]1[C@@H]2[C@@H]3CN[C@@]1(C(=O)NCc1ccccc1)C[C@@H]3CN2CC1CCCCC1 [IF-246] | 10 to 30 µM
NC(=O)C[C@@H]1[C@@H]2[C@@H]3CN[C@@]1(C(=O)NCc1ccc(O)cc1)C[C@@H]3CN2CC1CCCCC1 [IF-247] | 10 to 30 µM
NC(=O)C[C@@H]1[C@@H]2[C@@H]3CN[C@@]1(C(=O)NCCc1ccccc1)C[C@@H]3CN2CC1CCCCC1 [IF-251] | 10 to 30 µM
CCCCCCNC(=O)[C@@]12C[C@@H]3CN(CC4CCCCC4)[C@@H]([C@@H]3CN1)[C@H]2CCCNC(=N)N [IF-260] | 10 to 30 µM
CC(C)CNC(=O)[C@@]12C[C@@H]3CN(Cc4ccc(F)cc4)[C@@H]([C@@H]3CN1)[C@H]2CC(N)=O [IF-262] | < 5 µM
NC(=O)C[C@@H]1[C@@H]2[C@@H]3CN[C@@]1(C(=O)NCCc1ccccc1)C[C@@H]3CN2Cc1ccc(F)cc1 [IF-269] | 10 to 30 µM
CC(C)NC(=O)[C@@]12C[C@@H]3CN(Cc4ccc(F)cc4)[C@@H]([C@@H]3CN1)[C@H]2CCCNC(=N)N [IF-274] | 10 to 30 µM
N=C(N)NCCC[C@@H]1[C@@H]2[C@@H]3CN[C@@]1(C(=O)NCc1cccc4ccccc14)C[C@@H]3CN2Cc1ccccc1 [IF-284] | 10 to 30 µM

SMILES | IC50
CCCCCCNC(=O)[C@@]12C[C@@H]3CN(Cc4ccccc4)[C@@H]([C@@H]3CN1)[C@H]2CCCNC(=N)N [IF-285] | 10 to 30 µM
N=C(N)NCCC[C@@H]1[C@@H]2[C@@H]3CN[C@@]1(C(=O)NCc1cccc4ccccc14)C[C@@H]3CN2Cc1ccc(F)cc1 [IF-297] | 10 to 30 µM
CCCCCCNC(=O)[C@@]12C[C@@H]3CN(Cc4ccc(F)cc4)[C@@H]([C@@H]3CN1)[C@H]2CCCNC(=N)N [IF-298] | 10 to 30 µM
CC(C)CC[C@@H]1[C@@H]2[C@@H]3CN[C@@]1(C(=O)NCCC(N)=O)C[C@@H]3CN2CC(C)C [IF-300] | 10 to 30 µM
CC(C)CCNC(=O)[C@@]12C[C@@H]3CN(CCCNC(=N)N)[C@@H]([C@@H]3CN1)[C@H]2Cc1cccc2ccccc12 [IF-356] | 10 to 30 µM
CC(C)CC[C@@H]1[C@@H]2[C@@H]3CN[C@@]1(C(=O)NCCC(N)=O)C[C@@H]3CN2Cc1cccc2ccccc12 [IF-384] | 10 to 30 µM
N=C(N)NCCCNC(=O)[C@@]12C[C@@H]3CN(Cc4cccc5ccccc45)[C@@H]([C@@H]3CN1)[C@H]2Cc1ccccc1 [IF-386] | 10 to 30 µM
N=C(N)NCCCNC(=O)[C@@]12C[C@@H]3CN(Cc4cccc5ccccc45)[C@@H]([C@@H]3CN1)[C@H]2CCc1ccccc1 [IF-389] | < 5 µM
N=C(N)NCCCNC(=O)[C@@]12C[C@@H]3CN(Cc4cccc5ccccc45)[C@@H]([C@@H]3CN1)[C@H]2Cc1cccc2ccccc12 [IF-390] | 10 to 30 µM
CC(C)CC[C@@H]1[C@@H]2[C@@H]3CN[C@@]1(C(=O)NCC(C)C)C[C@@H]3CN2Cc1ccccc1 [IF-411] | < 5 µM
CC(C)CC[C@@H]1[C@@H]2[C@@H]3CN[C@@]1(C(=O)NCC(C)C)C[C@@H]3CN2CC(C)C [IF-412] | < 5 µM
CC(C)CCN1C[C@H]2C[C@]3(C(=O)NCCC(=O)O)NC[C@H]2[C@H]1[C@H]3Cc1cccc2ccccc12 [IF-413] | 10 to 30 µM
O=C(O)CCNC(=O)[C@@]12C[C@@H]3CN(CC4CCCCC4)[C@@H]([C@@H]3CN1)[C@H]2Cc1cccc2ccccc12 [IF-416] | 10 to 30 µM
O=C(O)CCNC(=O)[C@@]12C[C@@H]3CN(Cc4ccc(F)cc4)[C@@H]([C@@H]3CN1)[C@H]2Cc1cccc2ccccc12 [IF-417] | 10 to 30 µM
O=C(O)CC[C@@H]1[C@@H]2[C@@H]3CN[C@@]1(C(=O)NCc1cccc4ccccc14)C[C@@H]3CN2CC1CCCCC1 [IF-419] | 10 to 30 µM
CC(C)CC[C@@H]1[C@@H]2[C@@H]3CN[C@@]1(C(=O)NCc1cccc4ccccc14)C[C@@H]3CN2CCC(=O)O [IF-422] | 10 to 30 µM
CC(C)CN1C[C@H]2C[C@]3(C(=O)NCCC(=O)O)NC[C@H]2[C@H]1[C@H]3Cc1cccc2ccccc12 [IF-428] | 10 to 30 µM
NC(=O)CCNC(=O)[C@@]12C[C@@H]3CN(Cc4cccc5ccccc45)[C@@H]([C@@H]3CN1)[C@H]2Cc1ccc(O)cc1 [IF-435] | < 5 µM
O=C(NCCc1ccccc1)[C@@]12C[C@@H]3CN(CC4CCCCC4)[C@@H]([C@@H]3CN1)[C@H]2Cc1ccc(O)cc1 [IF-439] | < 5 µM
O=C(O)CCNC(=O)[C@@]12C[C@@H]3CN(CCO)[C@@H]([C@@H]3CN1)[C@H]2Cc1cccc2ccccc12 [IF-444] | 10 to 30 µM
CC(C)CCN1C[C@H]2C[C@]3(C(=O)NCc4ccc(O)cc4)NC[C@H]2[C@H]1[C@H]3CCC(=O)O [IF-445] | 10 to 30 µM
O=C(O)CC[C@@H]1[C@@H]2[C@@H]3CN[C@@]1(C(=O)NCc1ccc(O)cc1)C[C@@H]3CN2CC1CCCCC1 [IF-447] | 10 to 30 µM
